Results as given in patent publication US3951952A, “Broad spectrum antibiotics” (Pfizer Inc., priority 1973, dated 1976).
Values after ≈ are worked out from the molar mass of the structure shown. Like-named read-outs stand apart in the source and are kept apart here.

Tests used:
[1] = system: Ps. aeruginosa 52A104; assay: In vitro MIC, Ps. aeruginosa 52A104; format: cell-based
Source text: (§1) The in vitro activity of the herein described compounds renders them useful for topical application in the form of ointments, creams and the like, or for sterilization purposes, e.g., sick-room utensils.
(§2) Table I compares the in vitro profile of 6-[D-2-phenyl-2-(amidinopropionamido)acetamido]penicillanic acid (PAP) with ampicillin (AMP) and carbenicillin (CAR).

[2] = system: A. aerogenes; assay: In vitro MIC, A. aerogenes (strain not given); format: cell-based; details: Table III
Source text: as §1, §2

[3] = system: E. coli 51A266; assay: In vitro MIC, E. coli 51A266; format: cell-based
Source text: as §1, §2

[4] = system: Kleb. pneumoniae 53A009; assay: In vitro MIC, Kleb. pneumoniae 53A009; format: cell-based
Source text: as §1, §2

[5] = system: S. aureus 01A005; assay: In vitro MIC, S. aureus 01A005; format: cell-based; details: Table III
Source text: as §1, §2

[6] = system: P. mirabilis 57C015; assay: In vitro MIC, P. mirabilis 57C015; format: cell-based; details: Table III
Source text: as §1, §2

[7] = system: E. coli 51A266; assay: In vivo protection of mice against experimental E. coli 51A266 infection; details: doses 0.5, 4 and 24 hours; for % Survivors: Table IV; for % Protection (% survivors): Table II
Protocol: Table II presents the in vivo comparison data for the three compounds contained in Table I aganst several experimental infections in mice.
The values (% survivors) are obtained under standard conditions known to those skilled in the art. For the E. coli organism, the test compound is administered to the infected mice by a multiple dosing regimen in which the first dose is given 0.5 hour after inoculation and is repeated 4 and 24 hours later.
Table IV presents in vivo comparison data for the four compounds in Table III against E. coli infections in mice.
The values, reported as % survivors, are obtained under standard conditions familiar to those skilled in the art. The test compound is administered to the infected mice by a multiple dosing regimen in which the first dose is given 0.5 hour after inoculation and is repeated 4 and 24 hours later.

[8] = system: Ps. aeruginosa 52A490; assay: In vitro MIC, Ps. aeruginosa 52A490; format: cell-based
Source text: as §1, §2

[9] = system: Ser. marcescens 63A001; assay: In vitro MIC, Ser. marcescens 63A001; format: cell-based
Source text: as §1, §2

[10] = system: Kleb. pneumoniae 53A015; assay: In vitro MIC, Kleb. pneumoniae 53A015; format: cell-based; details: Klebsiella pneumoniae, Table I, nutrient broth
Source text: as §1, §2

[11] = system: E. coli 51A002; assay: In vitro MIC, E. coli 51A002; format: cell-based; details: Escherichia coli, Table I, nutrient broth
Source text: as §1, §2

[12] = system: Ps. aeruginosa 52A173; assay: In vitro MIC, Ps. aeruginosa 52A173; format: cell-based; details: Pseudomonas aeruginosa, Table I, nutrient broth
Source text: as §1, §2

[13] = system: S. aureus; assay: In vitro MIC, S. aureus; format: cell-based; details: Staphylococcus aureus, Table I, nutrient broth
Source text: as §1, §2

[14] = system: gram-negative bacteria; details: in words, U.S. Pat. No. 3,142,673, cited from earlier work
[15] = system: A. aerogenes 55A004; assay: In vitro MIC, A. aerogenes 55A004; format: cell-based; details: Klebsiella aerogenes, Table I, nutrient broth
Source text: as §1, §2

[16] = system: P. vulgaris 57A059; assay: In vitro MIC, P. vulgaris 57A059; format: cell-based; details: Proteus vulgaris
Source text: as §1, §2

[17] = system: A. aerogenes 55A002; assay: In vitro MIC, A. aerogenes 55A002; format: cell-based; details: Klebsiella aerogenes, Table I, nutrient broth
Source text: as §1, §2

[18] = Pseudomonas aeruginosa, Table I, nutrient broth, read-out: MIC
[19] = Escherichia coli, Table I, E. coli 51A266, nutrient broth, read-out: MIC
[20] = Klebsiella pneumoniae, Table I, nutrient broth, read-out: MIC
[21] = Serratia marcescens, Table I, nutrient broth, read-out: MIC
[22] = Table I, P. vulgaris 57A059, nutrient broth, read-out: MIC

CC1(C)S[C@@H]2[C@H](NC(=O)C(NC(=O)CNC(=N)c3ccc(Cl)cc3)c3ccccc3)C(=O)N2[C@H]1C(=O)O (stereo partly drawn) [X = Cl]
MIC ([1]; Table III): 25 µg/mL (≈ 46 µM) | MIC [2]: 3.12 µg/mL (≈ 5.73 µM) | MIC ([3]; Table III, E. coli 51A266): 0.78 µg/mL (≈ 1.43 µM) | MIC ([4]; Table III): 12.5 µg/mL (≈ 23 µM) | MIC [5]: 0.39 µg/mL (≈ 0.717 µM) | MIC [6]: 3.12 µg/mL (≈ 5.73 µM) | % Survivors ([7]; PO, 25 mg./kg.): 0% | % Survivors ([7]; PO, 50 mg./kg.): 0% | % Survivors ([7]; PO, 200 mg./kg.): 0% | % Survivors ([7]; SC, 25 mg./kg.): 50% | % Survivors ([7]; SC, 50 mg./kg.): 60% | % Survivors ([7]; SC, 200 mg./kg.): 70% | MIC ([8]; Table III): 12.5 µg/mL (≈ 23 µM) | MIC ([9]; Table III): 6.25 µg/mL (≈ 11.5 µM)

CC1(C)S[C@@H]2[C@H](NC(=O)C(C(=O)O)c3ccccc3)C(=O)N2[C@H]1C(=O)O (stereo partly drawn) [CAR, carbenicillin]
MIC [1, 18]: 50 µg/mL (≈ 132 µM) | MIC [3, 19]: 3.12 µg/mL (≈ 8.25 µM) | MIC [10]: > 200 µg/mL | MIC [11]: 200 µg/mL (≈ 529 µM) | MIC [12]: 75 µg/mL (≈ 198 µM) | MIC [4, 20]: 200 µg/mL (≈ 529 µM) | MIC [13]: 1.56 µg/mL (≈ 4.12 µM) | utility via oral administration ([14]; oral): limited utility via oral administration | efficacy against gram-negative bacteria ([14]; parenteral route): greater efficacy against gram-negative bacteria via the parenteral route of administration | MIC [15]: 50 µg/mL (≈ 132 µM) | MIC ([16]; 57A059): 12.5 µg/mL (≈ 33 µM) | MIC [8, 18]: 0.6 µg/mL (≈ 1.59 µM) | MIC [9, 21]: 25 µg/mL (≈ 66.1 µM) | MIC [17]: 25 µg/mL (≈ 66.1 µM)

CC1(C)S[C@@H]2[C@H](NC(=O)[C@H](NC(=O)CCC(=N)N)c3ccccc3)C(=O)N2[C@H]1C(=O)O [PAP, 6-[D-2-phenyl-2-(amidinopropionamido)acetamido]penicillanic acid]
MIC [1, 18]: 12.5 µg/mL (≈ 27.9 µM) | MIC [3, 19]: 1.56 µg/mL (≈ 3.49 µM) | MIC [10]: > 200 µg/mL | MIC [11]: 200 µg/mL (≈ 447 µM) | MIC [12]: 0.78 µg/mL (≈ 1.74 µM) | MIC [4, 20]: 25 µg/mL (≈ 55.9 µM) | MIC [16, 22]: 1.56 µg/mL (≈ 3.49 µM) | MIC [8, 18]: 1.56 µg/mL (≈ 3.49 µM) | MIC [9, 21]: 3.12 µg/mL (≈ 6.97 µM) | MIC [17]: 100 µg/mL (≈ 223 µM)

CC1(C)S[C@@H]2[C@H](NC(=O)C(NC(=O)CNC(=N)c3ccc(Br)cc3)c3ccccc3)C(=O)N2[C@H]1C(=O)O (stereo partly drawn) [X = Br]
MIC ([1]; Table III): 25 µg/mL (≈ 42.5 µM) | MIC [2]: 3.12 µg/mL (≈ 5.3 µM) | MIC ([3]; Table III, E. coli 51A266): 0.39 µg/mL (≈ 0.663 µM) | MIC ([4]; Table III): 12.5 µg/mL (≈ 21.2 µM) | MIC [5]: 0.39 µg/mL (≈ 0.663 µM) | MIC [6]: 3.12 µg/mL (≈ 5.3 µM) | % Survivors ([7]; PO, 25 mg./kg.): 10% | % Survivors ([7]; PO, 50 mg./kg.): 0% | % Survivors ([7]; PO, 200 mg./kg.): 0% | % Survivors ([7]; SC, 25 mg./kg.): 50% | % Survivors ([7]; SC, 50 mg./kg.): 60% | % Survivors ([7]; SC, 200 mg./kg.): 90% | MIC ([8]; Table III): 6.25 µg/mL (≈ 10.6 µM) | MIC ([9]; Table III): 6.25 µg/mL (≈ 10.6 µM)

CC1(C)S[C@@H]2[C@H](NC(=O)C(NC(=O)CNC(=N)c3ccccc3)c3ccccc3)C(=O)N2[C@H]1C(=O)O (stereo partly drawn) [X = H]
MIC ([1]; Table III): 25 µg/mL (≈ 49.1 µM) | MIC [2]: 25 µg/mL (≈ 49.1 µM) | MIC ([3]; Table III, E. coli 51A266): 12.5 µg/mL (≈ 24.5 µM) | MIC ([4]; Table III): 100 µg/mL (≈ 196 µM) | MIC [5]: 0.78 µg/mL (≈ 1.53 µM) | MIC [6]: 12.5 µg/mL (≈ 24.5 µM) | % Survivors ([7]; PO, 25 mg./kg.): 0% | % Survivors ([7]; PO, 50 mg./kg.): 0% | % Survivors ([7]; PO, 200 mg./kg.): 10% | % Survivors ([7]; SC, 25 mg./kg.): 10% | % Survivors ([7]; SC, 50 mg./kg.): 70% | % Survivors ([7]; SC, 200 mg./kg.): 90% | MIC ([8]; Table III): 12.5 µg/mL (≈ 24.5 µM) | MIC ([9]; Table III): 12.5 µg/mL (≈ 24.5 µM)

CC1(C)S[C@@H]2[C@H](NC(=O)[C@H](N)c3ccccc3)C(=O)N2[C@H]1C(=O)O [AMP, ampicillin, reference compound]
MIC [1, 18]: 200 µg/mL (≈ 572 µM) | MIC ([3]; Escherichia coli, 51A266): 3.12 µg/mL (≈ 8.93 µM) | MIC [10]: 250 µg/mL (≈ 715 µM) | MIC [11]: 200 µg/mL (≈ 572 µM) | MIC [12]: 38 µg/mL (≈ 109 µM) | MIC [4, 20]: 100 µg/mL (≈ 286 µM) | MIC [13]: 0.09 µg/mL (≈ 0.258 µM) | MIC [15]: 5 µg/mL (≈ 14.3 µM) | MIC [16, 22]: 6 µg/mL (≈ 17.2 µM) | % Protection (% survivors) ([7]; PO, 50 mg./kg.): 80% | % Protection (% survivors) ([7]; PO, 200 mg./kg.): 90% | % Protection (% survivors) ([7]; SC, 50 mg./kg.): 80% | % Protection (% survivors) ([7]; SC, 200 mg./kg.): 90% | MIC [8, 18]: 0.78 µg/mL (≈ 2.23 µM) | MIC [9, 21]: 200 µg/mL (≈ 572 µM) | MIC [17]: 100 µg/mL (≈ 286 µM)

CC1(C)S[C@@H]2[C@H](NC(=O)C(NC(=O)CNC(=N)c3ccc(F)cc3)c3ccccc3)C(=O)N2[C@H]1C(=O)O (stereo partly drawn) [X = F]
MIC ([1]; Table III): 12.5 µg/mL (≈ 23.7 µM) | MIC [2]: 25 µg/mL (≈ 47.4 µM) | MIC ([3]; Table III, E. coli 51A266): 1.56 µg/mL (≈ 2.96 µM) | MIC ([4]; Table III): 25 µg/mL (≈ 47.4 µM) | MIC [5]: 0.39 µg/mL (≈ 0.739 µM) | MIC [6]: 3.12 µg/mL (≈ 5.91 µM) | % Survivors ([7]; PO, 25 mg./kg.): 10% | % Survivors ([7]; PO, 50 mg./kg.): 0% | % Survivors ([7]; PO, 200 mg./kg.): 10% | % Survivors ([7]; SC, 25 mg./kg.): 50% | % Survivors ([7]; SC, 50 mg./kg.): 70% | % Survivors ([7]; SC, 200 mg./kg.): 90% | MIC ([8]; Table III): 3.12 µg/mL (≈ 5.91 µM) | MIC ([9]; Table III): 6.25 µg/mL (≈ 11.8 µM)
